# Results as given in PMC11274715 (2024).
# Columns and labels:
# Experiment in all cases: ITC
# Conditions in all cases: 40 mM NaCl, 5 mM MgCl2; 25 mM Tris-HCl pH 7.5, 25 °C; single-site model
# [1] = system: SAM-VI AP RNA (RNA, riboswitch) CGUAUCAUUGUGCCUUAUCCGCAAAAGGCGGGUAGGGCGAUAAGUCCGAAAGAGGGAUGAUAUG
# [2] = system: SAM-VI M2 RNA (RNA, riboswitch) ACAACAGAAUGAACCAACGUAUCAUUGUGCCUUAUCCGCAAAAGGCGGGUAGGGCGAUAAGUCCGAAAGAGGGAUGAU
# [3] = system: SAM-VI WT RNA (RNA, riboswitch) ACAACAGAAUGAACCAACGUAUCAUUGUGCCUUAUCCGCAAAAGGCGGGUAGGGCGAUAAGUCCGAAAGAGGGAUGAUAUG
smiles,measurement,setting,value
C[S+](CC[C@H](N)C(=O)O)C[C@H]1O[C@@H](n2cnc3c(N)ncnc32)[C@H](O)[C@@H]1O (stereo partly drawn),affinity,[1],5.33 µM
same,Kd,[2],419.95 µM
same,affinity,[3],8.95 µM
